Where “and” joins values, the source holds several entries; their conditions need not be identical. Equal entries are not always repeated. Toxic doses and inconclusive results are not listed. No stated cut-off is given here; in the data, active means T/C of 150% or more; inactive means T/C below 125%.
Tested on: L1210 leukemia ip in BDF1 mice, survival T/C
Experiment: NCI In Vivo Anticancer Drug Screen. Data for tumor model L1210 Leukemia (intraperitoneal) in B6D2F1 (BDF1) mice
Conditions: endpoint: mean survival time, higher = longer survival
Procedure, shortened: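 Antitumor effect is assessed in tumor-bearing animals. Survival in the compound arm is compared with a vehicle-dosed control arm and expressed as their quotient.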

[1] = dose: 100.0 mg/kg/injection, schedule: Q04DX003 (ip), vehicle: saline with Tween-80
[2] = dose: 200.0 mg/kg/injection, schedule: Q04DX003 (ip), vehicle: saline with Tween-80
[3] = dose: 400.0 mg/kg/injection, schedule: Q04DX003 (ip), vehicle: saline with Tween-80
[4] = dose: 100.0 mg/kg/injection, schedule: Q01DX009 (ip), vehicle: Klucel (hydroxypropylcellulose) (HPC)
[5] = dose: 100.0 mg/kg/injection, schedule: Q04DX003 (ip), vehicle: Klucel (hydroxypropylcellulose) (HPC)
[6] = dose: 200.0 mg/kg/injection, schedule: Q01DX009 (ip), vehicle: Klucel (hydroxypropylcellulose) (HPC)
[7] = dose: 200.0 mg/kg/injection, schedule: Q04DX003 (ip), vehicle: Klucel (hydroxypropylcellulose) (HPC)
[8] = dose: 400.0 mg/kg/injection, schedule: Q01DX009 (ip), vehicle: Klucel (hydroxypropylcellulose) (HPC)
[9] = dose: 400.0 mg/kg/injection, schedule: Q04DX003 (ip), vehicle: Klucel (hydroxypropylcellulose) (HPC)
[10] = dose: 100.0 mg/kg/injection, schedule: Q01DX001 (ip), vehicle: carboxymethylcellulose (CMC)
[11] = dose: 200.0 mg/kg/injection, schedule: Q01DX001 (ip), vehicle: carboxymethylcellulose (CMC)
[12] = dose: 400.0 mg/kg/injection, schedule: Q01DX001 (ip), vehicle: carboxymethylcellulose (CMC)
[13] = dose: 100.0 mg/kg/injection, schedule: Q01DX009 (ip), vehicle: saline with Tween-80
[14] = dose: 200.0 mg/kg/injection, schedule: Q01DX009 (ip), vehicle: saline with Tween-80
[15] = dose: 400.0 mg/kg/injection, schedule: Q01DX009 (ip), vehicle: saline with Tween-80
[16] = dose: 100.0 mg/kg/injection, schedule: Q01DX001 (ip), vehicle: saline
[17] = dose: 200.0 mg/kg/injection, schedule: Q01DX001 (ip), vehicle: saline
[18] = dose: 400.0 mg/kg/injection, schedule: Q01DX001 (ip), vehicle: saline
[19] = dose: 100.0 mg/kg/injection, schedule: Q01DX009 (ip), vehicle: saline
[20] = dose: 200.0 mg/kg/injection, schedule: Q01DX009 (ip), vehicle: saline
[21] = dose: 100.0 mg/kg/injection, schedule: Q04DX002 (ip), vehicle: saline with Tween-80
[22] = dose: 200.0 mg/kg/injection, schedule: Q04DX002 (ip), vehicle: saline with Tween-80
[23] = dose: 400.0 mg/kg/injection, schedule: Q04DX002 (ip), vehicle: saline with Tween-80

Measured: T/C

O=C1CCC(N2C(=O)C3C4CCC(CC4)C3C2=O)C(=O)N1 (stereo not given)
inactive: [1] 104 % of control | [2] 96 % of control | [3] 100 % of control

O=C(/C=C/C(=O)Oc1ccc(Cl)cc1)Oc1ccc(Cl)cc1
inactive: dose: 100.0 mg/kg/injection, schedule: Q01DX001 (ip), vehicle: Klucel (hydroxypropylcellulose) (HPC) 96 % of control | [4] 102 % of control | [5] 97 % of control | dose: 200.0 mg/kg/injection, schedule: Q01DX001 (ip), vehicle: Klucel (hydroxypropylcellulose) (HPC) 101 % of control | [6] 102 % of control | [7] 108 % of control | dose: 400.0 mg/kg/injection, schedule: Q01DX001 (ip), vehicle: Klucel (hydroxypropylcellulose) (HPC) 99 % of control | [8] 100 % of control | [9] 107 % of control

CC(=O)N\C(N)=N/N=C\C(C)=N/N=C(\N)NC(C)=O
inactive: dose: 15.0 mg/kg/injection, schedule: Q01DX Z (ip), vehicle: carboxymethylcellulose (CMC) 94 % of control | dose: 30.0 mg/kg/injection, schedule: Q01DX Z (ip), vehicle: carboxymethylcellulose (CMC) 94 % of control | dose: 60.0 mg/kg/injection, schedule: Q01DX Z (ip), vehicle: carboxymethylcellulose (CMC) 97 % of control and 100 % of control | dose: 120.0 mg/kg/injection, schedule: Q01DX Z (ip), vehicle: carboxymethylcellulose (CMC) 94 % of control and 102 % of control | dose: 240.0 mg/kg/injection, schedule: Q01DX Z (ip), vehicle: carboxymethylcellulose (CMC) 109 % of control

O=C(O)c1ccc(Cl)nc1
inactive: dose: 50.0 mg/kg/injection, schedule: Q01DX001 (ip), vehicle: carboxymethylcellulose (CMC) 97 % of control | [10] 94 % of control | [1] 104 % of control | [11] 92 % of control | [2] 103 % of control | [12] 94 % of control | [3] 104 % of control

Cc1cc(OCCOC(=O)Nc2cccc(C(F)(F)F)c2)cc(C)c1Cl
inactive: dose: 25.0 mg/kg/injection, schedule: Q01DX009 (ip), vehicle: saline with Tween-80 102 % of control | dose: 50.0 mg/kg/injection, schedule: Q01DX009 (ip), vehicle: saline with Tween-80 102 % of control | [13] 98 % of control and 118 % of control | [14] 93 % of control | [15] 91 % of control

COc1cc(N)c2ncccc2c1Cl
inactive: [16] 104 % of control | [17] 104 % of control | [18] 101 % of control

C1CCC(NC2=NCCO2)CC1
inactive: dose: 12.5 mg/kg/injection, schedule: Q04DX002 (ip), vehicle: saline with Tween-80 101 % of control | dose: 25.0 mg/kg/injection, schedule: Q04DX002 (ip), vehicle: saline with Tween-80 93 % of control | dose: 50.0 mg/kg/injection, schedule: Q04DX002 (ip), vehicle: saline with Tween-80 90 % of control

OC1CC2CCC1C2 (stereo not given)
inactive: [13] 94 % of control | [1] 106 % of control | [14] 105 % of control | [2] 91 % of control | [15] 95 % of control | [3] 88 % of control

c1ccc(OP(Oc2ccccc2)c2ccccc2)cc1
inactive: [19] 108 % of control | [5] 105 % of control | [20] 115 % of control | [7] 102 % of control | [9] 98 % of control

CCOc1cccc(OC(C)=O)c1
inactive: dose: 75.0 mg/kg/injection, schedule: Q01DX001 (ip), vehicle: carboxymethylcellulose (CMC) 103 % of control | dose: 150.0 mg/kg/injection, schedule: Q01DX001 (ip), vehicle: carboxymethylcellulose (CMC) 90 % of control

CCOC(=O)Oc1c(Cl)cc(S(=O)(=O)F)cc1Cl
inactive: dose: 100.0 mg/kg/injection, schedule: Q04DX003 (ip), vehicle: carboxymethylcellulose (CMC) 101 % of control | dose: 200.0 mg/kg/injection, schedule: Q04DX003 (ip), vehicle: carboxymethylcellulose (CMC) 108 % of control | dose: 400.0 mg/kg/injection, schedule: Q04DX003 (ip), vehicle: carboxymethylcellulose (CMC) 90 % of control

COc1ccc(COC(=O)Nc2ccc([N+](=O)[O-])cc2OC)cc1
inactive: [4] 90 % of control | [6] 91 % of control | [8] 106 % of control

O=P1(c2ccccc2)C=C(Cl)CC1 (stereo not given)
inactive: dose: 75.0 mg/kg/injection, schedule: Q01DX001 (ip), vehicle: saline 96 % of control | dose: 150.0 mg/kg/injection, schedule: Q01DX001 (ip), vehicle: saline 107 % of control

CC(C(O)c1ccncc1)[N+](=O)[O-] (stereo not given)
inactive: [21] 92 % of control | [22] 107 % of control | [23] 92 % of control

CNC(=O)C1NCCc2cc(OC)c(OC)cc21 (stereo not given)
inactive: [16] 97 % of control | [17] 95 % of control | [18] 91 % of control

CN(C)CCN(C)C(=O)C1C(c2ccccc2)C1c1ccccc1 (stereo not given)
inactive: dose: 12.5 mg/kg/injection, schedule: Q04DX002 (ip), vehicle: Klucel (hydroxypropylcellulose) (HPC) 100 % of control | dose: 25.0 mg/kg/injection, schedule: Q04DX002 (ip), vehicle: Klucel (hydroxypropylcellulose) (HPC) 100 % of control | dose: 50.0 mg/kg/injection, schedule: Q04DX002 (ip), vehicle: Klucel (hydroxypropylcellulose) (HPC) 87 % of control

CC/C(C)=C(/C(=O)O)c1ccccc1
inactive: [1] 91 % of control | [2] 94 % of control | [3] 94 % of control

O=[N+]([O-])c1cnc(/C=C/c2ccccc2)nc1
inactive: [10] 97 % of control | [11] 95 % of control | [12] 89 % of control

CCS(=O)(=O)CC
inactive: [19] 101 % of control | dose: 100.0 mg/kg/injection, schedule: Q04DX003 (ip), vehicle: saline 100 % of control | [20] 106 % of control | dose: 200.0 mg/kg/injection, schedule: Q04DX003 (ip), vehicle: saline 107 % of control | dose: 400.0 mg/kg/injection, schedule: Q01DX009 (ip), vehicle: saline 97 % of control | dose: 400.0 mg/kg/injection, schedule: Q04DX003 (ip), vehicle: saline 95 % of control

Cc1cc(O)c2cc3c(O)c(O)ccc3cc2c1
inactive: dose: 0.5 mg/kg/injection, schedule: Q01DX015 (ip), vehicle: saline 94 % of control | dose: 1.0 mg/kg/injection, schedule: Q01DX015 (ip), vehicle: saline 96 % of control | dose: 2.0 mg/kg/injection, schedule: Q01DX015 (ip), vehicle: saline 96 % of control | dose: 4.0 mg/kg/injection, schedule: Q01DX015 (ip), vehicle: saline 100 % of control and 109 % of control | dose: 5.0 mg/kg/injection, schedule: Q01DX001 (ip), vehicle: saline 112 % of control | dose: 6.2 mg/kg/injection, schedule: Q01DX001 (ip), vehicle: carboxymethylcellulose (CMC) 108 % of control | dose: 8.0 mg/kg/injection, schedule: Q01DX015 (ip), vehicle: saline 103 % of control | dose: 10.0 mg/kg/injection, schedule: Q01DX001 (ip), vehicle: saline 115 % of control | dose: 12.5 mg/kg/injection, schedule: Q01DX001 (ip), vehicle: carboxymethylcellulose (CMC) 104 % of control | dose: 25.0 mg/kg/injection, schedule: Q01DX001 (ip), vehicle: carboxymethylcellulose (CMC) 110 % of control

CC(C)=CCC/C(C)=C\COc1cccc(C)c1
inactive: [21] 100 % of control | [22] 96 % of control | [23] 96 % of control

CCN(CC)CCCC(C)Nc1ccc(NC(C)CCCN(CC)CC)c2c1C(=O)c1ccccc1C2=O (stereo not given)
inactive: dose: 25.0 mg/kg/injection, schedule: Q01DX009 (ip), vehicle: saline 96 % of control | dose: 25.0 mg/kg/injection, schedule: Q04DX002 (ip), vehicle: saline 92 % of control | dose: 50.0 mg/kg/injection, schedule: Q01DX009 (ip), vehicle: saline 89 % of control | dose: 50.0 mg/kg/injection, schedule: Q04DX002 (ip), vehicle: saline 103 % of control | dose: 100.0 mg/kg/injection, schedule: Q04DX002 (ip), vehicle: saline 96 % of control and 98 % of control

From PubChem BioAssay AID248 (DTP/NCI, 2004)
